In ChEMBL document CHEMBL1201862, “PubChem BioAssay data set” (2004):
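In this assay, cells in 96-well plates receive the compound at five concentrations for 48 hours. Endpoints are linearly interpolated between the surrounding concentrations. Abbreviation: GI50, concentration required for 50% inhibition of growth.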 The source made the active and inactive calls. Cut-off read from the data, not from the text of the source: active = GI50 up to about 1.1 µM and inactive = higher.

Assays:
Assay in all cases: growth of human tumour cells (NCI), 48 h
SW-620 = test system: SW-620
Hs-578T = test system: Hs-578T
786-0 = test system: 786-0
HOP-62 = test system: HOP-62
HT-29 = test system: HT-29
SK-MEL-5 = test system: SK-MEL-5
MDA-MB-231 = test system: MDA-MB-231
COLO 205 = test system: COLO 205
PC-3 = test system: PC-3
MDA-MB-435 = test system: MDA-MB-435
KM12 = test system: KM12
MDA-N = test system: MDA-N
A549 = test system: A549
T47D = test system: T47D
ACHN = test system: ACHN
SF-268 = test system: SF-268
OVCAR-4 = test system: OVCAR-4
TK-10 = test system: TK-10
HOP-92 = test system: HOP-92

SMILES	GI50 (SW-620)	GI50 (Hs-578T)	GI50 (786-0)	GI50 (HOP-62)	GI50 (HT-29)	GI50 (SK-MEL-5)	GI50 (MDA-MB-231)	GI50 (COLO 205)	GI50 (PC-3)	GI50 (MDA-MB-435)	GI50 (KM12)	GI50 (MDA-N)	GI50 (A549)	GI50 (T47D)	GI50 (ACHN)	GI50 (SF-268)	GI50 (OVCAR-4)	GI50 (TK-10)	GI50 (HOP-92)
Nc1nc(N)c2c3c(cnc2n1)CC(c1ccccc1)CC3 (configuration not stated)	11.4 µM (inactive)	30.2 µM (inactive)	7.83 µM (inactive)	21.6 µM (inactive)	5.66 µM (inactive)	1.01 µM (active)	21.4 µM (inactive)	35 µM (inactive)	21.9 µM (inactive)	6.76 µM (inactive)	23.9 µM (inactive)	3.7 µM (inactive)	2.03 µM (inactive)	23.9 µM (inactive)	5 µM (inactive)	11.9 µM (inactive)	14.3 µM (inactive)	21.7 µM (inactive)	–
COC(=O)C1SC(N(C)c2ccccc2)=NC12c1ccccc1Nc1ccccc12 (configuration not stated)	27.9 µM (inactive)	14.5 µM (inactive)	26.1 µM (inactive)	33.8 µM (inactive)	19.3 µM (inactive)	12.9 µM (inactive)	–	14.5 µM (inactive)	16.3 µM (inactive)	17.6 µM (inactive)	18.3 µM (inactive)	23.1 µM (inactive)	20.3 µM (inactive)	15.7 µM (inactive)	31 µM (inactive)	21 µM (inactive)	19.7 µM (inactive)	29.8 µM (inactive)	14.1 µM (inactive)
CC/C=C\C=C/C(=O)N/C=C/CCC	> 100 µM (inactive)	> 100 µM (inactive)	> 100 µM (inactive)	> 100 µM (inactive)	78.3 µM (inactive)	–	> 100 µM (inactive)	–	85.1 µM (inactive)	> 100 µM (inactive)	> 100 µM (inactive)	> 100 µM (inactive)	> 100 µM (inactive)	62.8 µM (inactive)	> 100 µM (inactive)	> 100 µM (inactive)	> 100 µM (inactive)	> 100 µM (inactive)	27.7 µM (inactive)
CCOC(=O)Cc1ccc(Nc2nc3ccccc3nc2C(=O)OCC)cc1	> 100 µM (inactive)	34.5 µM (inactive)	34 µM (inactive)	38.3 µM (inactive)	> 100 µM (inactive)	46.1 µM (inactive)	–	> 100 µM (inactive)	62.5 µM (inactive)	> 100 µM (inactive)	> 100 µM (inactive)	> 100 µM (inactive)	35.2 µM (inactive)	36.6 µM (inactive)	53.5 µM (inactive)	53.7 µM (inactive)	77.1 µM (inactive)	37.1 µM (inactive)	43.8 µM (inactive)
Clc1ccc(COC(Cn2ccnc2)c2ccc(Cl)cc2Cl)cc1 (configuration not stated) [ECONAZOLE NITRATE]	11.3 µM (inactive)	17.1 µM (inactive)	12.6 µM (inactive)	15.5 µM (inactive)	8.49 µM (inactive)	–	12.4 µM (inactive)	8.28 µM (inactive)	9.16 µM (inactive)	9.68 µM (inactive)	12.1 µM (inactive)	11.9 µM (inactive)	9.79 µM (inactive)	5.42 µM (inactive)	12.8 µM (inactive)	14.7 µM (inactive)	8.3 µM (inactive)	11.4 µM (inactive)	11.8 µM (inactive)
Cc1nc2c(sc(=S)n2-c2ccccc2)c2nc3ncccc3n12	> 100 µM (inactive)	> 100 µM (inactive)	35.2 µM (inactive)	25 µM (inactive)	> 100 µM (inactive)	> 100 µM (inactive)	45.1 µM (inactive)	> 100 µM (inactive)	> 100 µM (inactive)	> 100 µM (inactive)	> 100 µM (inactive)	> 100 µM (inactive)	> 100 µM (inactive)	> 100 µM (inactive)	> 100 µM (inactive)	66.7 µM (inactive)	–	33.7 µM (inactive)	> 100 µM (inactive)
NC(=O)CNC(=O)[C@@H]1CC(OCCC(=O)O)CN1C(=O)C1CCCN1C(=O)OCc1ccccc1 (some centres not stated)	> 100 µM (inactive)	> 100 µM (inactive)	> 100 µM (inactive)	> 100 µM (inactive)	> 100 µM (inactive)	> 100 µM (inactive)	> 100 µM (inactive)	> 100 µM (inactive)	> 100 µM (inactive)	> 100 µM (inactive)	> 100 µM (inactive)	> 100 µM (inactive)	> 100 µM (inactive)	> 100 µM (inactive)	> 100 µM (inactive)	49.2 µM (inactive)	> 100 µM (inactive)	> 100 µM (inactive)	–
[N-]=[N+]=NC(c1cn(C2CC(O)C(CO)O2)c(=O)[nH]c1=O)C(Cl)I (configuration not stated)	> 100 µM (inactive)	> 100 µM (inactive)	> 100 µM (inactive)	> 100 µM (inactive)	> 100 µM (inactive)	> 100 µM (inactive)	> 100 µM (inactive)	> 100 µM (inactive)	–	> 100 µM (inactive)	> 100 µM (inactive)	> 100 µM (inactive)	> 100 µM (inactive)	> 100 µM (inactive)	> 100 µM (inactive)	> 100 µM (inactive)	> 100 µM (inactive)	> 100 µM (inactive)	–
